# Laboratory results from patent publication US20110300115A1, “USE OF INDUCTOR AGENTS GSE24.2 FOR PRODUCING PHARMACEUTICAL COMPOSITIONS FOR TREATING ILLNESSES RELATING TO CELLULAR SENESCENCE” (priority 2007, published 2011).
# Assays:
# [1] = test system: hTR promoter; assay: hTR-luc reporter, 293T cells; assay type: cell-based, human; conditions: luciferase 24 h after transfection
# Experimental: Also, cisplatinum stimulates the promoter's activity in GSE24-2 cells more than in the control cells (FIG. 2B). […] No effect was observed of the expression of GSE24-2 on the promoter hTR^9 using cells expressing DKC or GSE24-2 (FIG. 2C).
# Transfection and analysis of gene expression. The 293T cells were transfected transiently using the calcium phosphate method, as described previously^39. The total amount of DNA was maintained constant at 10 μg per million cells. The X-DC cells were transfected transiently by electroporation with 3 μg of pLNCX-GSE24-2 per million cells. The cells VA13 MEFs were transfected with […] of DNA/per million cells using lipofectamine plus (Invitrogen), following the manufacturer's instructions. The protein extracts were prepared and luciferase measured using a commercial kit (Promega). Each test was carried out in triplicate and the experiments were repeated three times. The efficiency of transfection was corrected by co-transfection of the plasmid p-CMV-Renilla.
# [2] = test system: telomerase activity of 293T cell extracts; assay: in vitro test of telomerase activity inhibition using cisplatinum (TRAP assay, telomeric probe); assay type: biochemical; conditions: 293T cell extracts and telomere probe treated in vitro with cisplatinum; rising amounts of peptide
# Experimental: This description for the first time describes use of the previously described peptide GSE 24.2 in an in vitro test of telomerase activity inhibition using cisplatinum with cell extracts from 293T cells and a telomere probe treated with cisplatinum. […] Additionally, the possible bond of the peptide GSE24-2 to the telomere sequence was analysed using gel shift tests, with an oligonucleotide that forms a loop (TEL1) which reconstructs the double chain sequence of the telomere with a small 3′ hanging sequence^41.
# Production and purification of the peptide GSE24-2: The DH5α cells of E. coli were transformed with the vector pGATEV GSE24-2 and the lysates were prepared as described previously^33. The fusion protein was purified with glutathione-sepharose and the purity was analysed by means of gel electrophoresis. The GSE24-2 was obtained following digestion with the protease TEV following the manufacturer's instructions. Routinely, 90% was obtained of the digested protein according to what was obtained in SDS-PAGE electrophoresis. The protein was passed twice through a Hi-Trap Ni-NTA column in order to discard polyhistidine tails, undigested protein, TEV protease, and impurities.
# Telomere repeat amplification protocol (TRAP). Telomerase activity was measured using the TRAPeze^37 telomerase detection kit (Intergen, Purchase, USA) following the manufacturer's instructions. […]
Compound,activity of the hTR promoter [1],telomerase activity of extracts under inhibition by cisplatinum [2]
O=C1c2ccccc2-c2n[nH]c3cccc1c23 [SP60125],capable of activating the activity of this promoter,–
"peptide GSE24-2: purified peptide GSE24-2 (SEQ ID NO2), fragment of dyskerin, produced in E. coli as fusion protein and cleaved with TEV protease (GFINLDKPSNPSSHEVVAWIRRILRVEKTGHSGTLDPKVTGCLIVCIERATRLVK; listed as Homo sapiens)",–,protect the telomerase activity of the extracts
